Results from patent US20120189673A1, “POLYPEPTIDES AND USES THEREOF” (priority 2009, published 2012).

Legend:
[1] = tested on: intrinsic pathway of coagulation in normal human plasma; test: Clotting assay: activated partial thromboplastin time (aPTT); assay type: biochemical
Method: (§1) Clotting assays. All clotting times were measured using an Amelung coagulometer. Activated partial thromboplastin time (aPTT) was measured by incubating the peptides diluted in sterile water at the indicated concentrations, with 100 μL citrated human plasma for 1 minute followed by the addition of 100 μL aPTT reagent (aPTT Automate, Diagnostica Stago) for 60 seconds at 37° C. Clotting was initiated by the addition of 100 μL of a 25-mM CaCl2 solution. In the prothombrin time assay (PT), clotting was initiated by the addition of 100 μL Thrombomax with calcium (PT reagent; Sigma-Aldrich). For measuring the thrombin clotting time (TCT), clotting was initiated by the addition of 100 μL Accuclot thrombin time reagent (TCT reagent; Sigma-Aldrich).

[2] = Properties stated for FFF21 (FIG. 56)
[3] = tested on: thrombin induced fibrin network formation in normal human plasma; test: Clotting assay: thrombin clotting time (TCT); assay type: biochemical
Method: as §1

[4] = tested on: extrinsic pathway of coagulation in normal human plasma; test: Clotting assay: prothrombin time (PT); assay type: biochemical
Method: as §1

[5] = tested on: E. coli LPS induced sepsis in wildtype C57BL/6 mice; test: LPS induced sepsis in wildtype mice, treatment with GHH25; assay type: in vivo, mouse
Source text: Animal experiments. The original knockout mice 129/B6-HRG^tm1wja1 were crossed with C57BL/6 mice (Taconic) for 14 generations to obtain uniform genetic background. These HRG-deficient mouse strain was called B6-HRG^tm1wja1 following ILAR (Institute of Laboratory Animal Resources) rules. Wildtype C57BL/6 control mice and C57BL/6 Hrg−/− mice (8-12 weeks, 27+/−4 g) were bred in the animal facility at Lund University. C57BL/6 Hrg^−/−, lacks the translation start point of exon 1 of the Hrg gene. Animals were housed under standard conditions of light and temperature and had free access to standard laboratory chow and water. In order to induce sepsis, 18 µg/g Escherichia coli 0111:B4 LPS were injected intraperitoneally into C57BL/6 or C57BL/6 Hrg−/− mice, divided into weight and sex matched groups. Survival and status was followed during seven days.
For treatment with GHH25 peptide, 1 mg of the peptide (diluted in 10 mM Tris, pH 7.4) or buffer only was injected intraperitoneal 30 minutes after LPS-challenge and survival and status was then followed.
Animal experiments. The original knockout mice 129/B6-HRG^tm1wja1 were crossed with C57BL/6 mice (Taconic) for 14 generations to obtain uniform genetic background. These HRG-deficient mouse strain was called B6-HRG^tm1wja1 following ILAR (Institute of Laboratory Animal Resources) rules. […]

[6] = tested on: Human monocyte-derived macrophages; test: TNF-α release from human macrophages; assay type: cell-based; conditions: 10 ng/ml LPS with or without HRG (2 μM); GHH25 10 and 100 μM; 24 hours
Method: TNF-α release from human macrophages. Human monocyte-derived macrophages (hMDMs) were obtained from peripheral blood mononuclear cells (PBMCs) obtained from the blood of healthy donors using a Lymphoprep (Axis-Shield PoC AS) density gradient. PBMCs were seeded at concentrations of 3×10^6 cells/well into 24-well plates and cultured in RPMI1640 medium supplemented with 10% heat-inactivated autologous human plasma, 2 mM L-glutamine, and 50 μl/ml Antibiotic-Antimycotic (Gibco) in a humidified atmosphere of 5% CO2. After 24 h, non-adherent cells were removed and adherent monocytes were differentiated to macrophages for 10 days, with fresh medium changes every second day. […] After stimulation the supernatant was aspirated and TNF-α was measured using the TNF-α human ELISA kit (Invitrogen).

RAW macrophages = test: Nitric oxide induction in RAW macrophages by LPS with or without HRG; assay type: cell-based, murine; conditions: 24 hours
Method: (§2) Nitric oxide induction in RAW macrophages. Confluent cells were harvested and transferred to 96-wells plate (3.5×10^5/well). After adhesion cells were washed with phenol red-free DMEM (Gibco). E. Coli LPS (100 ng/ml), LL-37 (2 or 10 μM) or HRG (2 or 10 μM) was preincubated at 37° C. for 30 minutes and then transferred to the cells. For inhibition of NO induction, 5 µg/ml anti mouse TLR4 antibody, 10 or 100 µM GHH25 or 100 µg/ml heparin were used. The cells were stimulated for 24 hours and nitric oxide was determined using the Griess chemical method.
as §2, with “([…]).” for “(3.5×10^5/well).”, “For inhibition of NO induction, 5 µg/ml anti mouse TLR4 antibody, 10 or 100 µM GHH25 or 100 µg/ml heparin were used.” left out

[7] = LPS-binding slot-blot assay with iodinated LPS; set-up: species or system Escherichia coli; conditions: 2 and 5 μg HRG on nitrocellulose; pH 7.4 or pH 5.5, with or without 0.15M NaCl
Method: Radioiodination of heparin and LPS. The radioiodination of heparin (from porcine intestinal mucosa, Sigma-Aldrich) was performed as described previously. The iodination of LPS was performed as described by Ulevitch. 1 mg Escherichia coli 0111:B4 LPS was incubated in 50 mM p-OH benzimidate in borate buffer, pH 8, over night at 4° C., and then dialyzed against PBS, pH 7.4. LPS was then radiolabelled with ^125I using the chloramine T method, and unlabelled ^125I was then removed by dialysis.
Heparin and LPS-binding assay. 1, 2 and 5 μg of the synthetic peptides in 100 μl PBS pH 7.4 were applied onto nitrocellulose membranes (Hybond-C, Amersham Biosciences) using a slot-blot apparatus. Membranes were blocked for 1 h at room temperature with 2% bovine serum albumin in PBS pH 7.4 and then incubated with radiolabelled LPS (˜40 μg·mL^−1, 0.13×10^6 cpm·μg^−1) or radiolabelled heparin (˜10 μg·mL^−1, 0.4×10^6 cpm·μg^−1) for 1 h at room temperature in PBS, pH 7.4. […] A Bas 2000 radio-imaging system (Fuji Film, Tokyo, Japan) was used to visualize radioactivity.
Slot-blot assay. […] After LPS binding, membranes were washed 3 times, 10 min each time in the above buffers and visualized for radioactivity on Bas 2000 radioimaging system (Fuji, Japan). […]
Heparin and LPS-binding assay. […] A Bas 2000 radio-imaging system (Fuji Film, Tokyo, Japan) was used to visualize radioactivity.

Method for erythrocytes: Hemolysis assay. EDTA-blood was centrifuged at 800 g for 10 min, whereafter plasma and buffy coat were removed. The erythrocytes were washed three times and resuspended in PBS, pH 7.4 to get a 5% suspension. The cells were then incubated with end-over-end rotation for 60 min at 37° C. in the presence of peptides (60 μM). 2% Triton X-100 (Sigma-Aldrich) served as positive control. The samples were then centrifuged at 800 g for 10 min and the supernatant was transferred to a 96 well microtiter plate. The absorbance of hemoglobin release was measured at λ 540 nm and is in the plot expressed as % of TritonX-100 induced hemolysis.

CC[C@H](C)[C@H](NC(=O)[C@H](CCCCN)NC(=O)[C@H](CCC(=O)O)NC(=O)[C@H](CCCCN)NC(=O)[C@H](CO)NC(=O)[C@H](CCCCN)NC(=O)[C@H](CCCNC(=N)N)NC(=O)[C@H](Cc1ccccc1)NC(=O)[C@H](Cc1ccccc1)NC(=O)[C@H](CC(=O)O)NC(=O)CNC(=O)[C@H](CC(C)C)NC(=O)[C@@H](N)CC(C)C)C(=O)NCC(=O)N[C@@H](CCCCN)C(=O)N[C@@H](CCC(=O)O)C(=O)N[C@@H](Cc1ccccc1)C(=O)N[C@@H](CCCCN)C(=O)N[C@@H](CCCNC(=N)N)C(=O)N[C@H](C(=O)N[C@H](C(=O)N[C@@H](CCC(N)=O)C(=O)N[C@@H](CCCNC(=N)N)C(=O)N[C@H](C(=O)N[C@@H](CCCCN)C(=O)N[C@@H](CC(=O)O)C(=O)N[C@@H](Cc1ccccc1)C(=O)N[C@@H](CC(C)C)C(=O)N[C@@H](CCCNC(=N)N)C(=O)N[C@@H](CC(N)=O)C(=O)N[C@@H](CC(C)C)C(=O)N[C@H](C(=O)N1CCC[C@H]1C(=O)N[C@@H](CCCNC(=N)N)C(=O)N[C@H](C(=O)N[C@@H](CCC(=O)O)C(=O)N[C@@H](CO)C(=O)O)[C@@H](C)O)C(C)C)[C@@H](C)CC)C(C)C)[C@@H](C)CC [LL-37]
doses at which erythrocytes were readily permeabilized (erythrocytes): > 6 µM

FFFAKLNCRLYRKANKSSKLV [FFF21, Antithrombin III-derived peptide, aa 153-173 of antithrombin III, P01008]
activated partial thromboplastin time (aPTT) [1]: impairs the intrinsic pathway of coagulation | antibacterial and antiinflammatory properties [2]: antibacterial and antiinflammatory properties | thrombin clotting time (TCT) [3]: not significantly affected | prothrombin time (PT) [4]: not significantly affected

GHHPHGHHPHGHHPHGHHPHGHHPH [GHH25]
survival ([5]; 1 mg GHH25 i.p. 30 minutes after E. coli LPS, followed seven days, p=0.03): significantly increased survival | health status ([5]; LPS induced sepsis, treatment with GHH25): Improved health status | TNF-α (HRG and LPS induced responses) [6]: inhibits HRG and LPS induced responses | LPS and HRG mediated NO release (RAW macrophages; 100 ng/ml LPS with or without HRG (2 μM), GHH25 10 and 100 μM): significantly decreased

B1: HRG: 67 kDa plasma protein histidine-rich glycoprotein, purified from human serum (protein, UniProt P04196 19-525, looked up)
Histidine-rich glycoprotein: VSPTDCSAVEPEAEKALDLINKRRRDGYLFQLLRIADAHLDRVENTTVYYLVLDVQESDCSVLSRKYWNDCEPPDSRRPSEIVIGQCKVIATRHSHESQDLRVIDFNCTTSSVSSALANTKDSPVLIDFFEDTERYRKQANKALEKYKEENDDFASFRVDRIERVARVRGGEGTGYFVDFSVRNCPRHHFPRHPNVFGFCRADLFYDVEALDLESPKNLVINCEVFDPQEHENINGVPPHLGHPFHWGGHERSSTTKPPFKPHGSRDHHHPHKPHEHGPPPPPDERDHSHGPPLPQGPPPLLPMSCSSCQHATFGTNGAQRHSHNNNSSDLHPHKHHSHEQHPHGHHPHAHHPHEHDTHRQHPHGHHPHGHHPHGHHPHGHHPHGHHPHCHDFQDYGPCDPPPHNQGHCCHGHGPPPGHLRRRGPGKGPRPFHCRQIGSVYRLPPLRKGEVLPLPEANFPSFPLPHHKHPLKPDNQPFPQSVSESCPGKFKSGFPQVSMFFTHTFPK
binding of iodinated LPS [7]: LPS-binding | LPS mediated NO release (RAW macrophages; 100 ng/ml LPS, HRG 2 and 10 μM, n=6, p=0.001): significantly increased
